Data reported in publication PMC8168342 (Chemical biology & drug design, 2021).

Target: T1, androgen receptor (AR) (Homo sapiens, UniProt P10275)
T1 sequence (P10275 1-920): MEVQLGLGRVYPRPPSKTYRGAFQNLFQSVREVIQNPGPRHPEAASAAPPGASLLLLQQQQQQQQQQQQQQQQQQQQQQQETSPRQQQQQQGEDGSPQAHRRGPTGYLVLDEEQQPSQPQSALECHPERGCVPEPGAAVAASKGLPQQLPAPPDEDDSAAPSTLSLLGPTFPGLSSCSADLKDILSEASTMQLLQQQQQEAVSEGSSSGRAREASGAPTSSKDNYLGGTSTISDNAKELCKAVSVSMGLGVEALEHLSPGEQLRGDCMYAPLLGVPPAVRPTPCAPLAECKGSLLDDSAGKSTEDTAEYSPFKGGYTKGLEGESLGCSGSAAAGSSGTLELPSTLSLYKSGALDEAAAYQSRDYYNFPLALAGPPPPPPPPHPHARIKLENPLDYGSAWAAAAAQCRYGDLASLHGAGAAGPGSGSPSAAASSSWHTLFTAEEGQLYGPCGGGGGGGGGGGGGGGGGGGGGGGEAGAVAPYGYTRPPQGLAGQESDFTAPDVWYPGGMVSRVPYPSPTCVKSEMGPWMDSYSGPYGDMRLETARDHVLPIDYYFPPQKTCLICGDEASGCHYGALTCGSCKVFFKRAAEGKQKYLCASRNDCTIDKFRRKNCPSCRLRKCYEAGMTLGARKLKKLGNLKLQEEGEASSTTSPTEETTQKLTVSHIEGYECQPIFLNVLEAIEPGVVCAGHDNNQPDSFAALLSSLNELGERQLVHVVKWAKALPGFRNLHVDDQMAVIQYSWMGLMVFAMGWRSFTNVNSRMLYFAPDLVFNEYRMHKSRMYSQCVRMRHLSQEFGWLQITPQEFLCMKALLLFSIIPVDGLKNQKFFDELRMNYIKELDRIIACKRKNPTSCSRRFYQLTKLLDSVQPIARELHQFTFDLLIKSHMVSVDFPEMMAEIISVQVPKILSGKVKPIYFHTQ
Experiment: ARE luciferase reporter assay in MDA-kb2 cells, antagonism of […] DHT
Type: cell-based

| Structure (SMILES) | % inhibition at 1 μM |
| --- | --- |
| CC1(C)C(=O)N(c2ccc(C#N)c(C(F)(F)F)c2)C(=S)N1c1ccc(CCCCCCO)nc1 [10b, 4-(3-(6-(6-Hydroxyhexyl)pyridin-3-yl)-4,4-dimethyl-5-oxo-2-thioxoimidazolidin-1-yl)-2-(trifluoromethyl) benzonitrile] | 60 |
| CC1(C)C(=O)N(c2ccc(C#N)c(C(F)(F)F)c2)C(=S)N1c1ccc(CCCCCCN=[N+]=[N-])nc1 [11b, 4-(3-(6-(6-Azidohexyl)pyridin-3-yl)-4,4-dimethyl-5-oxo-2-thioxoimidazolidin-1-yl)-2-(trifluoromethyl) benzonitrile] | 60 |
